# Laboratory results taken from patent US20090197872A1 (priority 2006, published 2009).
# Where a name gives a salt, the structure may show the parent alone.
# Molecular target: T1, α7-subtype of nicotinic receptors (Rattus norvegicus, UniProt Q05941)
# T1 construct: from tissue; host or cells: rat brain
# Assay: biochemical
# Conditions: read-out: Inhibition of 3H-α-Bungarotoxine Binding IC50
# T1 sequence (Q05941 23-502): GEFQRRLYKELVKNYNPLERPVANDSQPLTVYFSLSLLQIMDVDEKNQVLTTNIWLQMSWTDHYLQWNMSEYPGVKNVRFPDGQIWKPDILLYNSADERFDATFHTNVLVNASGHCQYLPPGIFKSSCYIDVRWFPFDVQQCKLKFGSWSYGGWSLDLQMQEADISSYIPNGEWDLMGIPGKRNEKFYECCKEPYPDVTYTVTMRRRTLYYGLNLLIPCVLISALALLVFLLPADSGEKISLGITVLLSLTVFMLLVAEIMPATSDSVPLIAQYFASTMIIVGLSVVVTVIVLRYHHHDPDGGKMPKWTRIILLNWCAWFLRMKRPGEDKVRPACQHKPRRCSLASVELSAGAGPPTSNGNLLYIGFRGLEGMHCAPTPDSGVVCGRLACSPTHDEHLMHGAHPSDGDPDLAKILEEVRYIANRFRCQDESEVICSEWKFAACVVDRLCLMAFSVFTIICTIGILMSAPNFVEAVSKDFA
structure (smiles),measurement,value
"O=C(Nc1cnc(N2CCN3CCC2CC3)nc1)Oc1ccccc1 [Compound A2, [2-(1,4-Diaza-bicyclo[3.2.2]non-4-yl)-pyrimidin-5-yl]-carbamic Acid Phenyl Ester Hydrochloric Acid Salt]",IC50,< 300 nM
